Bridge positions count the residues as written; N and C are the ends. Ends that are not written are not given here. Peptide text beside a SMILES is read from it.
Key:
[1] = test system: LPS/D-Gal acute liver injury model; assay: LPS/D-galactosamine-induced acute liver injury model; details: LPS/D-Gal challenge; FIG. 1, 2, 4
[2] = set-up: species or system C57BL/6 mice; details: mouse, in vivo, iv
Experimental: To evaluate the pharmacokinetics of iCP-NI in the lungs, 6-8 weeks old C57BL/6 mice were intravenously administered with 100 mg/kg of FITC-conjugated iCP-NI. Subsequently, mice were sacrificed at various time points and lung tissues were obtained for pharmacokinetic analysis. Also, other tissues (brain, heart, liver, spleen, kidney, small/large intestine and pancreas) were collected for distribution of iCP-NI analysis. Representative lung tissue specimens were perfusion-fixed with 4% paraformaldehyde (PFA; BIOSESANG, Cat No. PC2031-100-00) and incubated in 30% sucrose solution overnight at 4° C. Next, specimens were embedded in optimal cutting temperature (OCT) compound (Leica Biosystems, Cat No. 3801480) and cryo-sectioned to a 10 μm thickness onto microscope glass slide. The cryo-sectioned samples were washed thoroughly with PBS and incubated with ammonium chloride (NH4Cl, Sigma-Aldrich, Cat No. A9434) solution for 20 minutes at room temperature (RT). The samples were mounted with DAPI-containing mounting solution (Invitrogen, Cat No. 00-4959-52) and visualized by fluorescence microscopy using a confocal laser scanning microscope system (Leica SP8) and the images were processed with Leica LAS X software).

Row | Molecule | effect on survival, comparison in words [1] | time high levels remained in lung tissue [2] [h]
1 | cNLS: circular NLS CVQRKRQKLMPC (SEQ ID NO. 1), no aMTD (also: cyclised, mode not given here) | not enhanced | –
2 | 1NLS: linear nuclear localization sequence from NF-κB1 (p50); Table 1 prints VQRKRQKLMP (SEQ ID NO. 8) (NLS) [Structure 1NLS] | not enhanced | –
3 | CC[C@H](C)[C@H](N)C(=O)N[C@@H](C)C(=O)N[C@@H](C)C(=O)N[C@H](C(=O)N[C@@H](CC(C)C)C(=O)N[C@@H](C)C(=O)N[C@@H](C)C(=O)N1CCC[C@H]1C(=O)N[C@@H](C)C(=O)N[C@@H](CC(C)C)C(=O)N[C@H](C(=O)N1CCC[C@H]1C(=O)N[C@H]1CSSC[C@@H](C(=O)O)NC(=O)[C@@H]2CCCN2C(=O)[C@H](CCSC)NC(=O)[C@H](CC(C)C)NC(=O)[C@H](CCCCN)NC(=O)[C@H](CCC(N)=O)NC(=O)[C@H](CCCNC(=N)N)NC(=O)[C@H](CCCCN)NC(=O)[C@H](CCCNC(=N)N)NC(=O)[C@H](CCC(N)=O)NC(=O)[C@H](C(C)C)NC1=O)C(C)C)C(C)C [iCP-NI] (H-IAAVLAAPALVPCVQRKRQKLMPC-OH; disulfide 13-24; N-terminus and C-terminus assumed) | – | ≥ 8

From patent publication US20230039219A1, “Improved Cell-Permeable Nuclear Import Inhibitor Synthetic Peptide for Inhibition of Cytokine Storm or Inflammatory Disease and Use Thereof” (priority 2020, published 2023)
